We go through two compounds from US20250163122A1, “COMPOSITIONS AND METHODS FOR TREATING AIRWAY MUCUS DYSFUNCTION” (BOARD OF REGENTS, THE UNIVERSITY OF TEXAS SYSTEM, priority 2022, published 2025).

Where a SMILES comes first, the peptide text is derived from it. Bridges are numbered along the chain shown (N, C = ends). [ ]: non-standard residue; d: D form. S5 = C=CCCC[C@](C)(N)C(=O)O

For one assay, the target named is Syt1 C2B (Rattus norvegicus, UniProt P21707). The experiment in a line: Bulk fluorescence anisotropy binding, Syt1 C2B. Particulars: Cy3 labeled peptide. The procedure:
(§1) Bulk fluorescence anisotropy measurements. In the bulk fluorescence anisotropy experiments, the P0 and SP9 peptides were labeled with the fluorescent dye Cy3 at the C-terminus. Anisotropy was measured with a Tecan Infinite […] fluorimeter using an excitation wavelength of 530±5 nm and emission wavelength of 580±5 nm at 27.2° C. The fluorescent dye labeled samples were diluted to 10 nM concentration in TBS (20 mM Tris, pH 7.5, 150 mM NaCl, 0.5 mM TCEP) for optimal read out.
For orientation: Fluorescence polarisation rises when a labelled molecule tumbles more slowly, as on binding a larger partner.

The next assay addresses Syt2 C2B (Rattus norvegicus, UniProt P29101). The experiment in a line: Bulk fluorescence anisotropy binding, Syt2 C2B. Particulars: Cy3 labeled peptide. The procedure:
as §1

Assay [1] deals with airway epithelial SNAREs, Syt2, Munc13-2*, Munc18-2, NSF, and αSNAP (Rattus norvegicus, UniProt P29101). Put plainly: Single vesicle content mixing assay, airway system with complete reconstitution. Format: biochemical. Particulars: for Ca2+ independent fusion events / Ca2+ triggered fusion events: Munc13-2* + 10 μM SP9, raw count. The procedure:
FIGS. 3A-3G show the effect of stapled peptides on fusion with complete airway system reconstitution according to certain aspects of this disclosure. […] PM: vesicles with reconstituted Stx3 and SNAP-23 that mimic the plasma membrane of epithelial cells; SM: vesicles with reconstituted Stx3/Munc18-2 complex; SG: mucin-containing secretory granules. 0.5 μM Munc13-2* fragment was added after formation of the SM vesicles and during all subsequent stages. 10 μM stapled peptide was added together with SG vesicles and was present during all subsequent stages. […] The fusion probabilities and amplitudes were normalized to the number of analyzed SG—airway PM vesicle pairs (see TABLE 4). FIGS. 3C, 3E, 3F, and 3G show means±SEM for multiple independent repeat experiments (see TABLE 2).
For single vesicle content mixing assay, the lipid composition of the SV, SG, VAMP2, or VAMP8 vesicles was phosphatidylcholine (PC) (48%), phosphatidylethanolamine (PE) (20%), phosphatidylserine (PS) (12%), and cholesterol (20%); for both the neuronal and airway PM vesicles the lipid composition was Brain Total Lipid Extract supplemented 3.5 mol % PIP2, and 0.1 mol % biotinylated phosphatidylethanolamine (PE).
The reconstitution method for neuronal PM and SV vesicles was described in detail previously (see Lai et al., 2017; Kyoung et al., 2011; and Lai et al., 2014). The same methods were used for airway PM, SG, VAMP2, and VAMP8 vesicles. Dried lipid films were dissolved in 110 mM OG buffer containing purified proteins at protein-to-lipid ratios of 1:200 for VAMP2 and Stx1A for SV and neuronal PM vesicles, respectively (or 1:200 for VAMP8 and Stx3 for SG and airway PM vesicles, respectively), and 1:800 for Syt1 for SV vesicles (or 1:1200 for Syt2 for SG vesicles).
A 3-5 fold excess of SNAP-25A or SNAP-23 (with respect to Stx1A or Stx3) and 3.5 mol % PIP2 were added to the protein-lipid mixture for neuronal or airway PM vesicles. […] For the preparation of SV, SG, VAMP2, or VAMP8 vesicles for single vesicle content mixing assay, 50 mM sulforhodamine B (Thermo Fisher Scientific) was added to the protein-lipid mixture. The vesicles subsequently formed during size exclusion chromatography using a Sepharose CL-4B column, packed under near constant pressure by gravity with a peristaltic pump (GE Healthcare) in a 5.5 ml column with a ˜5 ml bed volume that was equilibrated with buffer V (20 mM HEPES, pH 7.4, 90 mM NaCl) supplemented with 20 μM EGTA and 0.1% 2-mercaptoethanol. The eluent was subjected to dialysis into 21 of detergent-free buffer V supplemented with 20 μM EGTA, 0.1% 2-mercaptoethanol, 5 g of Bio-beads SM2 (Bio-Rad) and 0.8 g/L Chelex 100 resin (Bio-Rad). After 4 hours, the buffer was exchanged with 21 of fresh buffer V supplemented with 20 μM EGTA, 0.1% 2-mercaptoethanol and Bio-beads, and the dialysis continued for another 12 h (overnight). […] For ensemble lipid mixing assay, the reconstitution method is the same as that for the single vesicle content mixing assay, except that 50 mM sulforhodamine B was omitted for all the steps.
Single vesicle content mixing experiments. All single vesicle fusion and single molecule experiments were performed on a prism-type total internal reflection fluorescence (TIRF) microscope using 532 nm (green) laser (CrystaLaser) excitation. Two observation channels were created by a 640 nm single-edge dichroic beamsplitter (FF640-FDi01-25x36, Shemrock): one channel was used for the fluorescence emission intensity of the content dyes and the other channel for that of the Cy5 dye that are part of the injected Ca^2+-solution. The two channels were recorded on two adjacent rectangular areas (45×90 m^2) of a charge-coupled device (CCD) camera (iXon+DV 897E, Andor Technology). The imaging data were recorded with the smCamera software developed by Taekjip Ha, Johns Hopkins University, Baltimore. […]

airway epithelial SNAREs, Syt2, Munc13-2*, Munc18-2, NSF, and αSNAP, sequence (P29101 whole entry, the tested form may be a part): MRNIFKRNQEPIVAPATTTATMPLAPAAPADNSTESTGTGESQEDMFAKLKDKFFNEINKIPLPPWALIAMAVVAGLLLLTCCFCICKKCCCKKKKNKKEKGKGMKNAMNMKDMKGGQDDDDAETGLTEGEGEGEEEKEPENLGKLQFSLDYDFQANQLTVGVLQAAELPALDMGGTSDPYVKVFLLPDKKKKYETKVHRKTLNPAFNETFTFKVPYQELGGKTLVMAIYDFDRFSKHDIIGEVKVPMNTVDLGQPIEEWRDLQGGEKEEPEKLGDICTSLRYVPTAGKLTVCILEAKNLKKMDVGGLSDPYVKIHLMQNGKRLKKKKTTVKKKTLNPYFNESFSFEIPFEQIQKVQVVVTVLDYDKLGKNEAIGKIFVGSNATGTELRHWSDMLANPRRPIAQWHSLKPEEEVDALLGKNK
Syt2 C2B, sequence (P29101 272-422): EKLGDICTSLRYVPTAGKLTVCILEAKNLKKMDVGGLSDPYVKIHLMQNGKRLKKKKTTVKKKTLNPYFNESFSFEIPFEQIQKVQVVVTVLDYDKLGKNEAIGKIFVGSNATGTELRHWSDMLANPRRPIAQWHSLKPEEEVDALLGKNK
Syt1 C2B, sequence (P21707 271-421): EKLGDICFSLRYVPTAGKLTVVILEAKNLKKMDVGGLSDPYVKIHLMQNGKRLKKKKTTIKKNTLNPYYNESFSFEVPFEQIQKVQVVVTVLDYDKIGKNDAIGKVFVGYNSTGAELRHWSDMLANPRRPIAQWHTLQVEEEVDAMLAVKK

Consider “EESKDAGIRTLVMLDEQGEQLD [Peptide P0, non-stapled SNAP-25A fragment used as a control, reference compound]”, for which the “binding to C2B domain of Syt1” value in the assay with Syt1 C2B was “no binding”. In the assay with Syt2 C2B, the “binding to C2B domain of Syt2” value is “no binding”.
`CC[C@H](C)[C@H](NC(=O)[C@]1(C)CCCC=CCCC[C@](C)(NC(=O)[C@H](CCC(=O)O)NC(=O)[C@H](CCC(=O)O)NC(C)=O)C(=O)N[C@@H](CCCCN)C(=O)N[C@@H](CC(=O)O)C(=O)N[C@@H](C)C(=O)N1)C(=O)N[C@@H](CCCNC(=N)N)C(=O)N[C@@]1(C)CCCC=CCCC[C@@](C)(C(=O)N[C@@H](CC(=O)O)C(=O)N[C@@H](CCC(=O)O)C(=O)N[C@@H](CCC(N)=O)C(=O)N[C@@H](CS)C(N)=O)NC(=O)[C@H](CCSC)NC(=O)[C@H](C(C)C)NC(=O)[C@H](CC(C)C)NC1=O` [SP9, Ac-EE(S5)KDA(S5)IR(S5)LVM(S5)DEQC-amide] (Ac-EE[S5]KDA[S5]IR[S5]LVM[S5]DEQC-NH2; staple 3-7, 10-14): the “effect on Ca2+-independent fusion probability” value in assay [1] (10 μM peptide) is listed as “only moderately reduced”. The “effect on vesicle association” value in assay [1] (10 μM peptide) is reported as “no effect”. In addition, the “effect on Ca2+-triggered fusion amplitude, cumulative fusion probability and synchronization” value in assay [1] (10 μM peptide, both 50 μM and 500 μM Ca2+) is “strongly inhibited”. The “Ca2+ independent fusion events” value is reported as 23 in assay [1] (50 μM Ca2+ experiment) and 41 in assay [1] (500 μM Ca2+ experiment). Moreover, the results for the “Ca2+ triggered fusion events” value in assay [1] (50 μM Ca2+) and in assay [1] (500 μM Ca2+) were 89 and 106, respectively.
